Results taken from paper PMC10114980, “Triple targeting of mutant EGFR^L858R/T790M, COX-2, and 15-LOX: design and synthesis of novel quinazolinone tethered phenyl urea derivatives for anti-inflammatory and anticancer evaluation” (Journal of Enzyme Inhibition and Medicinal Chemistry, 2023).

Columns and labels:
wild-type EGFR = molecular target: T1, wild-type EGFR (Homo sapiens, UniProt P00533); assay: In vitro EGFR inhibition assay, wild type; format: biochemical; conditions: for IC50: read-out: EGFR^WT IC50
T1 construct: purchased AssayQuant Technologies, Inc. (Marlboro, MA, USA)

[1] = molecular target: T2, double mutant EGFR^L858R/T790M (Homo sapiens, UniProt P00533, L858R/T790M); assay: In vitro EGFR inhibition assay, double mutant; format: biochemical; conditions: for IC50: double mutant EGFR; for Selectivity (SI): ratio of the IC50 values EGFR^WT/EGFR^L858R/T790M
T2 construct: purchased AssayQuant Technologies, Inc. (Marlboro, MA, USA)

[2] = system: LPS-induced IL-6 production in RAW 264.7 cells; assay: IL-6 production in LPS-activated RAW 264.7 cells (ELISA); format: cell-based; conditions: LPS-activated RAW 264.7 cells treated with 25 µM of the compound
[3] = system: LPS-induced TNF-α production in RAW 264.7 cells; assay: TNF-α production in LPS-activated RAW 264.7 cells (ELISA); format: cell-based; conditions: LPS-activated RAW 264.7 cells treated with 25 µM of the compound
HL-60(TB) = assay: NCI single dose screen, HL-60(TB); format: cell-based; conditions: Homo sapiens, leukaemia, single dose 10^−5 M, read-out: growth inhibition percentage
Protocol: (§1) Screening of the anticancer activity of the newly synthesised compounds (6a, 6c, 6d, 6e, 6j, 6l, 6m, 6n, 6o, and 6p) was performed by the US National Cancer Institute (NCI) using 60 different human tumour cell lines in accordance with standard procedures formerly reported.
(§2) In vitro anticancer screening was carried out for the selected compounds at a single dose (10^−5 M) against 60 different human tumour cell lines of nine different cancer cell types: leukaemia, lung, colon, CNS, melanoma, ovarian, renal, prostate, and breast cancers.

K-562 = assay: NCI single dose screen, K-562; format: cell-based; conditions: Homo sapiens, K562; K-562, leukaemia; single dose 10^−5 M; read-out: growth inhibition percentage
Protocol: as §1, §2

MOLT-4 = assay: NCI single dose screen, MOLT-4; format: cell-based; conditions: Homo sapiens; MOLT-4, leukaemia; single dose 10^−5 M; read-out: growth inhibition percentage
Protocol: as §1, §2

RPMI-8226 = assay: NCI single dose screen, RPMI-8226; format: cell-based; conditions: Homo sapiens; RPMI-8226, leukaemia; single dose 10^−5 M; read-out: growth inhibition percentage
Protocol: as §1, §2

SR = assay: NCI single dose screen, SR; format: cell-based; conditions: Homo sapiens, leukaemia, single dose 10^−5 M, read-out: growth inhibition percentage
Protocol: as §1, §2

NCI-H226 = assay: NCI single dose screen, NCI-H226; format: cell-based; conditions: Homo sapiens; NCI-H226, non-small cell lung cancer; single dose 10^−5 M; read-out: growth inhibition percentage
Protocol: as §1, §2

HCC-2998 = assay: NCI single dose screen, HCC-2998; format: cell-based; conditions: Homo sapiens; HCC-2998, colon cancer; single dose 10^−5 M; read-out: growth inhibition percentage
Protocol: as §1, §2

HT29 = assay: NCI single dose screen, HT29; format: cell-based; conditions: Homo sapiens, HT-29; HT29, colon cancer; single dose 10^−5 M; read-out: growth inhibition percentage
Protocol: as §1, §2

SW-620 = assay: NCI single dose screen, SW-620; format: cell-based; conditions: Homo sapiens; SW-620, colon cancer; single dose 10^−5 M; read-out: growth inhibition percentage
Protocol: as §1, §2

SNB-19 = assay: NCI single dose screen, SNB-19; format: cell-based; conditions: Homo sapiens; SNB-19, CNS cancer; single dose 10^−5 M; read-out: growth inhibition percentage
Protocol: as §1, §2

SNB-75 = assay: NCI single dose screen, SNB-75; format: cell-based; conditions: Homo sapiens; SNB-75, CNS cancer; single dose 10^−5 M; read-out: growth inhibition percentage
Protocol: as §1, §2

MALME-3M = assay: NCI single dose screen, MALME-3M; format: cell-based; conditions: Homo sapiens, melanoma, single dose 10^−5 M, read-out: growth inhibition percentage
Protocol: as §1, §2

M14 = assay: NCI single dose screen, M14; format: cell-based; conditions: Homo sapiens; M14, melanoma; single dose 10^−5 M; read-out: growth inhibition percentage
Protocol: as §1, §2

SK-MEL-28 = assay: NCI single dose screen, SK-MEL-28; format: cell-based; conditions: Homo sapiens; SK-MEL-28, melanoma; single dose 10^−5 M; read-out: growth inhibition percentage
Protocol: as §1, §2

SK-MEL-5 = assay: NCI single dose screen, SK-MEL-5; format: cell-based; conditions: Homo sapiens; SK-MEL-5, melanoma; single dose 10^−5 M; read-out: growth inhibition percentage
Protocol: as §1, §2

UACC-257 = assay: NCI single dose screen, UACC-257; format: cell-based; conditions: Homo sapiens; UACC-257, melanoma; single dose 10^−5 M; read-out: growth inhibition percentage
Protocol: as §1, §2

OVCAR-3 = assay: NCI single dose screen, OVCAR-3; format: cell-based; conditions: Homo sapiens; OVCAR-3, ovarian cancer; single dose 10^−5 M; read-out: growth inhibition percentage
Protocol: as §1, §2

OVCAR-4 = assay: NCI single dose screen, OVCAR-4; format: cell-based; conditions: Homo sapiens; OVCAR-4, ovarian cancer; single dose 10^−5 M; read-out: growth inhibition percentage
Protocol: as §1, §2

NCI/ADR-RES = assay: NCI single dose screen, NCI/ADR-RES; format: cell-based; conditions: Homo sapiens, ovarian cancer, single dose 10^−5 M, read-out: growth inhibition percentage
Protocol: as §1, §2

SK-OV-3 = assay: NCI single dose screen, SK-OV-3; format: cell-based; conditions: Homo sapiens; SK-OV-3, ovarian cancer; single dose 10^−5 M; read-out: growth inhibition percentage
Protocol: as §1, §2

ACHN = assay: NCI single dose screen, ACHN; format: cell-based; conditions: Homo sapiens, renal cancer, single dose 10^−5 M, read-out: growth inhibition percentage
Protocol: as §1, §2

CAKI-1 = assay: NCI single dose screen, CAKI-1; format: cell-based; conditions: Homo sapiens; CAKI-1, renal cancer; single dose 10^−5 M; read-out: growth inhibition percentage
Protocol: as §1, §2

TK-10 = assay: NCI single dose screen, TK-10; format: cell-based; conditions: Homo sapiens; TK-10, renal cancer; single dose 10^−5 M; read-out: growth inhibition percentage
Protocol: as §1, §2

DU-145 = assay: NCI single dose screen, DU-145; format: cell-based; conditions: Homo sapiens; DU-145, prostate cancer; single dose 10^−5 M; read-out: growth inhibition percentage
Protocol: as §1, §2

MDA-MB-231/ATCC = assay: NCI single dose screen, MDA-MB-231/ATCC; format: cell-based; conditions: Homo sapiens, breast cancer, single dose 10^−5 M, read-out: growth inhibition percentage
Protocol: as §1, §2

HS 578T = assay: NCI single dose screen, HS 578T; format: cell-based; conditions: Homo sapiens, breast cancer, single dose 10^−5 M, read-out: growth inhibition percentage
Protocol: as §1, §2

BT-549 = assay: NCI single dose screen, BT-549; format: cell-based; conditions: Homo sapiens; BT-549, breast cancer; single dose 10^−5 M; read-out: growth inhibition percentage
Protocol: as §1, §2

T1 sequence (P00533 25-1210): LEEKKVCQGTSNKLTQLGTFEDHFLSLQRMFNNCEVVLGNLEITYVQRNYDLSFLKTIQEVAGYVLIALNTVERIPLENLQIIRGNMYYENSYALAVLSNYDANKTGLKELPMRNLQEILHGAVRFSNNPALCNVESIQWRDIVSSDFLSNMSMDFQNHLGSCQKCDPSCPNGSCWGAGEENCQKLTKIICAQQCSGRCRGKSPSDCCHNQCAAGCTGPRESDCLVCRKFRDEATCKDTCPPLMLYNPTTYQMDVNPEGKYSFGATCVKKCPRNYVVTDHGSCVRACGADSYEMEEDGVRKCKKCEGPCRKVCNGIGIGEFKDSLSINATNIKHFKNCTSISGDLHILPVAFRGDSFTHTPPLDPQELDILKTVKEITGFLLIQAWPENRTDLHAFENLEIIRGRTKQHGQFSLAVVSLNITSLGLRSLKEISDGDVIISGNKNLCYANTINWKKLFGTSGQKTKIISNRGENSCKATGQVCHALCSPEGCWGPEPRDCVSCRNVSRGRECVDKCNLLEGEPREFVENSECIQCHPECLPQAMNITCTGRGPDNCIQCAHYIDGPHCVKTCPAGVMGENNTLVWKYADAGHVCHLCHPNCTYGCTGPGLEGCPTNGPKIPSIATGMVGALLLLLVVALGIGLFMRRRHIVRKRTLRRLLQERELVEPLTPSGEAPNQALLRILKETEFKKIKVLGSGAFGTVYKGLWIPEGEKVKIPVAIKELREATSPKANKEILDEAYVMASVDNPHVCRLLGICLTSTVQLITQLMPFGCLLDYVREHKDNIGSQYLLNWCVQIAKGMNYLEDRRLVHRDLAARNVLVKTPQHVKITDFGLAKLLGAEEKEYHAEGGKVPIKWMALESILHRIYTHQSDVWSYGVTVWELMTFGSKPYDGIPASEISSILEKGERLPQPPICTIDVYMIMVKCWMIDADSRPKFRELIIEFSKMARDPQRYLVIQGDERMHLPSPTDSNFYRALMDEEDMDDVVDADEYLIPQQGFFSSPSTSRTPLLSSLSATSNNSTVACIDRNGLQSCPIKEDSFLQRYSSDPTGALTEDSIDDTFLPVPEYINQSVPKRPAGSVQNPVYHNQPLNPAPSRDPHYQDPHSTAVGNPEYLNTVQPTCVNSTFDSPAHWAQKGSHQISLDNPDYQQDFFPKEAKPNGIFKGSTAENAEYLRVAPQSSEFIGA
T2 sequence (P00533 25-1210 T790M/L858R): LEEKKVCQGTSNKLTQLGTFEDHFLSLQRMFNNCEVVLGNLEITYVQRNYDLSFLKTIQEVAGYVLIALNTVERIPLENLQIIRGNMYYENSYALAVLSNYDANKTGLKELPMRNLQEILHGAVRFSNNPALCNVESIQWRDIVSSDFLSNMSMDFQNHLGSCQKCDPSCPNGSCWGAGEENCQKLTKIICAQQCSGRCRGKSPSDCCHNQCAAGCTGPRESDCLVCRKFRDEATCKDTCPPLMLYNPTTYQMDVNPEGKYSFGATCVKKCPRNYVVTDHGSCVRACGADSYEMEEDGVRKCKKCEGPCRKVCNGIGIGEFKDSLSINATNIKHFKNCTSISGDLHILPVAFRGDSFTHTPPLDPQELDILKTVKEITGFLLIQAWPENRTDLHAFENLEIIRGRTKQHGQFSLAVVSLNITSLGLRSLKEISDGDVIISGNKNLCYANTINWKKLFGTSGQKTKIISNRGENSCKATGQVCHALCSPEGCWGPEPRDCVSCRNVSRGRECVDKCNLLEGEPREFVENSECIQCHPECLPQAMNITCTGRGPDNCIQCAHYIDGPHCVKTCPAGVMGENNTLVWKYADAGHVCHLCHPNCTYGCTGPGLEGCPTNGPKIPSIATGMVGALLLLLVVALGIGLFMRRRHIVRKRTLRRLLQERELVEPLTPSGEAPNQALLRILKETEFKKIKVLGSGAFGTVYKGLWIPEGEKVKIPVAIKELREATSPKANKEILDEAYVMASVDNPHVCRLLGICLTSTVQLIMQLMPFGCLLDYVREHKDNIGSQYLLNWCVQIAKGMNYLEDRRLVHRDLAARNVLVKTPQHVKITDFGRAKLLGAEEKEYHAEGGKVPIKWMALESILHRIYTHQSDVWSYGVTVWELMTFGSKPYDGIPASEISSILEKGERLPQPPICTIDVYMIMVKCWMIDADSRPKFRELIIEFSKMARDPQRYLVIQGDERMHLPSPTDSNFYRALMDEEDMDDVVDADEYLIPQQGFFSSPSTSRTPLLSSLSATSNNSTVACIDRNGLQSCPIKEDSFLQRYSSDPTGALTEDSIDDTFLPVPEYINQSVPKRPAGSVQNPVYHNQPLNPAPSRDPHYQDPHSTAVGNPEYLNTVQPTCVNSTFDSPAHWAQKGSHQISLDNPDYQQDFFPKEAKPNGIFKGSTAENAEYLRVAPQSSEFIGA

| Structure (SMILES) | IC50 (wild-type EGFR) | IC50 [1] | Selectivity (SI) [1] | IL-6 concentration [2] | TNF-α concentration [3] | inhibition at 10 µM (HL-60(TB)) | inhibition at 10 µM (K-562) | inhibition at 10 µM (MOLT-4) | inhibition at 10 µM (RPMI-8226) | inhibition at 10 µM (SR) | inhibition at 10 µM (NCI-H226) | inhibition at 10 µM (HCC-2998) | inhibition at 10 µM (HT29) | inhibition at 10 µM (SW-620) | inhibition at 10 µM (SNB-19) | inhibition at 10 µM (SNB-75) | inhibition at 10 µM (MALME-3M) | inhibition at 10 µM (M14) | inhibition at 10 µM (SK-MEL-28) | inhibition at 10 µM (SK-MEL-5) | further results |
| --- | --- | --- | --- | --- | --- | --- | --- | --- | --- | --- | --- | --- | --- | --- | --- | --- | --- | --- | --- | --- | --- |
| COc1ccc(C2N(NC(=O)Nc3ccc(F)cc3)C(=O)c3ccccc3N2C)cc1 (stereo not shown) [Compound 6p, 1-(4-Fluorophenyl)-3-(2–(4-methoxyphenyl)-1-methyl-4-oxo-1,4-dihydroquinazolin-3(2H)-yl)urea] | > 100 µM | 5.41 ± 3.21 µM | >18.5 | 237.2 ± 3.19 pg/mL | 1549.00 ± 20.25 pg/mL | < 10% | < 10% | 11.2% | 11.2% | < 10% | < 10% | < 10% | < 10% | < 10% | < 10% | < 10% | < 10% | 11.8% | < 10% | < 10% | inhibition at 10 µM (UACC-257): < 10%; inhibition at 10 µM (OVCAR-3): 17.1%; inhibition at 10 µM (OVCAR-4): < 10%; inhibition at 10 µM (NCI/ADR-RES): < 10%; inhibition at 10 µM (SK-OV-3): < 10%; inhibition at 10 µM (ACHN): < 10%; inhibition at 10 µM (CAKI-1): < 10%; inhibition at 10 µM (TK-10): < 10%; inhibition at 10 µM (DU-145): < 10%; inhibition at 10 µM (MDA-MB-231/ATCC): 12.6%; inhibition at 10 µM (HS 578T): < 10%; inhibition at 10 µM (BT-549): < 10% |
| CN1CN(NC(=O)Nc2ccccc2)C(=O)c2ccccc21 [Compound 6a, 1-(1-Methyl-4-oxo-1,4-dihydroquinazolin-3(2H)-yl)-3-phenylurea] | > 100 µM | 0.46 ± 1.11 µM | >217 | 173.7 ± 4.77 pg/mL | 1157.00 ± 78.71 pg/mL | < 10% | < 10% | < 10% | < 10% | < 10% | < 10% | < 10% | < 10% | < 10% | < 10% | < 10% | < 10% | < 10% | < 10% | < 10% | EGFR^WT IC50 (wild-type EGFR): no significant activity; inhibition at 10 µM (UACC-257): < 10%; inhibition at 10 µM (OVCAR-3): < 10%; inhibition at 10 µM (OVCAR-4): < 10%; inhibition at 10 µM (NCI/ADR-RES): < 10%; inhibition at 10 µM (SK-OV-3): < 10%; inhibition at 10 µM (ACHN): < 10%; inhibition at 10 µM (CAKI-1): < 10%; inhibition at 10 µM (TK-10): < 10%; inhibition at 10 µM (DU-145): < 10%; inhibition at 10 µM (MDA-MB-231/ATCC): < 10%; inhibition at 10 µM (HS 578T): < 10%; inhibition at 10 µM (BT-549): < 10% |
| CN1c2ccccc2C(=O)N(NC(=O)Nc2ccccc2)C1c1ccc(F)cc1 (stereo not shown) [Compound 6d, 1-(2-(4-Fluorophenyl)-1-methyl-4-oxo-1,4-dihydroquinazolin-3(2H)-yl)-3-phenylurea] | > 100 µM | 5.57 ± 1.78 µM | >17.9 | 358.7 ± 12.85 pg/mL | 1222.00 ± 12.70 pg/mL | < 10% | < 10% | 11.1% | < 10% | < 10% | < 10% | < 10% | < 10% | < 10% | < 10% | 13.8% | < 10% | < 10% | < 10% | < 10% | inhibition at 10 µM (UACC-257): < 10%; inhibition at 10 µM (OVCAR-3): 12.5%; inhibition at 10 µM (OVCAR-4): < 10%; inhibition at 10 µM (NCI/ADR-RES): < 10%; inhibition at 10 µM (SK-OV-3): < 10%; inhibition at 10 µM (ACHN): < 10%; inhibition at 10 µM (CAKI-1): 13%; inhibition at 10 µM (TK-10): < 10%; inhibition at 10 µM (DU-145): < 10%; inhibition at 10 µM (MDA-MB-231/ATCC): < 10%; inhibition at 10 µM (HS 578T): < 10%; inhibition at 10 µM (BT-549): < 10% |
